Source: patent publication US8153424B2, “Method of in vitro differentiation of neural stem cells, motor neurons and dopamine neurons from primate embryonic stem cells” (Wisconsin Alumni Research Foundation, priority 2001, dated 2012)

Key:
Type in all cases: cell-based, human
[1] = system: hESC-derived motor neurons; test: Whole-cell patch-clamp of hESC-derived motor neurons, spontaneous synaptic currents; settings: combination of D-AP5 (40 μM) and CNQX (20 μM)
[2] = system: hESC-derived neural precursors; test: BrdU incorporation by dissociated ES cell-derived neural precursors; settings: FGF2 20 ng/ml, EGF 20 ng/ml, LIF 5 ng/ml; each alone
Experimental: Histochemical and immunohistochemical staining. To better visualize the rosette formations, cultures with rosettes were rinsed with PBS and fixed in 4% paraformaldehyde and 0.25% glutaraldehyde for 1 hour. The fixed cells were then processed for embedding in plastic resin as described (Zhang et al., supra, 1999). The cultured cells were then sectioned in 1-μm thickness and stained with toluidine blue. For immunostaining, the coverslip cultures were immunostained with the following primary antibodies detected by appropriate fluorescent secondary antibodies detailed elsewhere (Zhang et al., supra, 2000; Zhang et al., supra, 1999): anti-nestin (polyclonal, gift of Dr. R. McKay of NINDS, 1:1,000); anti-polysialylated neuronal cell adhesion molecule (PSA-NCAM, mouse IgM, gift of Dr. G. Rougon of University of Marseille, France, 1:200); anti-Musashi-1 (rat IgG, gift of Dr. H. Okano, University of Tokyo, Japan, 1:500); anti-GFAP (polyclonal, Dako, 1:1,000); anti-human GFAP (Sternberg monoclonals, 1:10,000); O4 (mouse IgM, hybridoma supernatant, 1:50); anti-tyrosine hydroxylase (TH, Pel Freez, 1:500). The remaining antibodies were from Sigma: anti-βIII-tubulin (mouse IgG, 1:500); anti-neurofilament (NF) 68 (mouse IgG, 1:1,000); anti-NF 200 (polyclonal, 1:5,000); anti-MAP2ab (mouse IgG, 1:250); anti-γ-aminobutyric acid (GABA, polyclonal, 1:10,000); anti-glutamate (mouse IgG, 1:10,000). For bromodeoxyuridine (BrdU) incorporation, 4 coverslip cultures in each group were incubated with 2 μM of BrdU for sixteen hours before the cultures were fixed in 4% paraformaldehyde, denatured with 1N HCl and processed for immunolabeling and cell counting (Zhang et al., supra, 2000; Zhang et al., supra, 1999).

[3] = system: hESC-derived neuroectodermal cells; test: Motor neuron induction in adherent culture, immunocytochemistry and HB9 cell counting
Experimental: hESCs (lines H1 and H9, passages 19 to 42) were cultured and passaged weekly on a feeder layer of irradiated embryonic mouse fibroblasts as described (Thomson et al., supra, 1998). The undifferentiated state of ESCs were confirmed by typical morphology and expression of Oct4 and SSEA4. For neuroectodermal differentiation, hESCs were aggregated for four days and then cultured on an adhesive plastic surface for ten days in F12/DMEM supplemented with N2, heparin (2 ng/ml), and FGF2 (20 ng/ml) or RA (Zhang et al., supra, 2001). […]
Primary antibodies used in this study included polyclonal antibodies against neuronal class III βIII-tubulin (Covance Research Products, Richmond, Calif., 1:2000), nestin (Chemicon, Temecula, Calif., 1:750), Sox1 (Chemicon, 1:1000), synapsin I (Calbiochem, Darmstadt, German, 1:500), ChAT (Chemicon, 1:50), and VAChT (Chemicon, 1:1000), Isl½ (S. Pfaff), Otx2 (F. Vaccarino), and Oig2 (M. Nakafuku). […] For identification of electrophysiologically recorded cells, biocytin (Molecular Probes) filled cells were labeled with streptavidin-FITC (sigma, 1:200) and stained for ChAT. […]
The population of HB9-expressing cells among total differentiated cells (Hoechst labeled) was counted by a person who was blind to experimental groups either manually using the Metamorph software (Universal Imaging Corporation, Downingtown, Pa.) or by stereological measurement. […]

Compound | Effect on remaining inward (excitatory) synaptic currents [1] | BrdU incorporation (stimulation of precursor cell proliferation) [2] | also measured
N#Cc1cc2c(cc1[N+](=O)[O-])=NC(=O)C(=O)N=2 [CNQX, 6-cyano-7-nitroquinoxaline-2,3-dione] | blocked | – | –
LIF: leukemia inhibitory factor | – | could not be elicited | –
CC1=C(/C=C/C(C)=C/C=C/C(C)=C/C(=O)O)C(C)(C)CCC1 [RA, retinoic acid] | – | – | RA concentration inducing the highest proportion of HB9+ cells [3]: 0.1 to 1.0 µM; RA dose resulting in degeneration of some cells ([3]; chemically defined adherent cultures): over 1.0 μM
EGF: epidermal growth factor (NSDSECPLSHDGYCLHDGVCMYIEALDKYACNCVVGYIGERCQYRDLKWWELR; Epidermal growth factor; UniProt P01133 971-1023, looked up) | – | could not be elicited | –
N[C@H](CCCP(=O)(O)O)C(=O)O [D-AP5, D-2-amino-5-phosphonovaleric acid] | blocked | – | –
